These results are taken from US20260334439A1, “BCAT2 INHIBITORS” (Agios Pharmaceuticals, Inc., priority 2023, published 2026).

Where only a bound is given, the exact number is not on record here.

Experiment [1] has as its target T1, BCAT2 (Homo sapiens, UniProt O15382).
T1 sequence (O15382 28-392): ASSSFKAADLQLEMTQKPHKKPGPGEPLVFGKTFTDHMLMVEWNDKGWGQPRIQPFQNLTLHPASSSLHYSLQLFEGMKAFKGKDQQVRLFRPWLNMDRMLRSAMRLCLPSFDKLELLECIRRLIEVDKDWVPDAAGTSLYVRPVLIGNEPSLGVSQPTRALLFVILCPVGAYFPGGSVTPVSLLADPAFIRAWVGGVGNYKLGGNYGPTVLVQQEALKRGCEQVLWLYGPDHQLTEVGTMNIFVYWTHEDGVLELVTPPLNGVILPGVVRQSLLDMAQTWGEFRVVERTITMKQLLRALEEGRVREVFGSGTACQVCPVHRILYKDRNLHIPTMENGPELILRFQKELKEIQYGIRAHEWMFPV
In words: BCAT2 in vitro enzyme inhibition assay (hBCAT2, glutamate dehydrogenase/diaphorase/resazurin coupled fluorescence read). To be noted: hBCAT2, 1 h preincubation at 25° C., one hour reaction; average where tested multiple times. The class given is biochemical. In short, it runs like this: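 hBCAT2 (0.33 μg/mL in mix) preincubated 1 h at 25 °C with compound (top 100 μM, 3-fold, 10 points) in Tris pH 8.0/NaCl/BSA; substrate mix added (L-leucine, α-ketoglutarate, GDH, NAD, diaphorase, resazurin), quenched with SDS after 1 h, fluorescence Ex 540/Em 590; duplicates, repeat tests averaged.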
For orientation: The colour change of resazurin is a common sign of viable cells or microbes.

Experiment [2] concerns the target T1, BCAT2. As to the kind of experiment: BCAT2 cell inhibition using engineered A549 cells (MUT KO, BCAT1 KO; 13C6-KMV formation by LC-MS/MS). The class given is cell-based. Also noted: expressed endogenous BCAT2; endogenous in cells; host or cells: A549 cells, MUT knockout and BCAT1 knockout. An excerpt: Endogenous Methylmalonyl-CoA Mutase (MUT) and Branched Chain Aminotransferase 1 (BCAT1) in A549 cells was knocked out by CRISPR/CAS9 using the targeting system from TransOMIC Technologies. The following guide sequence was cloned into pCLIP-ALL-EFS-Blast vector to target human MUT: […] (SEQ ID NO: 35). The following guide sequence was cloned into pCLIP-ALL-EFS-Puro vector to target human BCAT1: […] (SEQ ID NO: 36). The resulting plasmids were co-transfected into 293T cells with VSV-G, P-PEX, and Fugene-6. Lentivirus was harvested and A549 cells were first transduced with lentivirus targeting MUT and polybrene. After genetic selection with blasticidin clonal selection was performed and validated via western blot analysis to confirm MUT was no longer expressed. These MUT KO cells were then transduced with lentivirus targeting BCAT1 and polybrene. After selection with puromycin clonal selection was performed and clones were validated via western blot analysis to confirm BCAT1 was no longer expressed in these cells. The result was an engineered A549 cell line that expressed endogenous BCAT2.
For KMV cell assays, on day 1, 25,000 cells/100 μL EMEM (10% FBS) were seeded in each well of a 96-well plate. On day 2, medium was replaced with 50 μL fresh EMEM (10% dialyzed FBS) containing 2× the assay concentration of experimental compound. After 15 minutes, 50 μL of 800 uM ^15N,^13C6-Isoleucine in EMEM (10% dialyzed FBS) was added to each well and incubated for 24 hours. On day 3, 50 μL of media from each well was collected and transferred to another 96-well plate for ^13C6-3-Methyl-2-Oxopentanoic Acid (KMV) analysis via LC-MS/MS. In the remaining assay wells 50 μL of Promega Glo CTG reagent was added and luminescence was measured as a cell viability readout.
For LC-MS/MS analysis 5 μL of cell assay media from each well was transferred to a 96-well plate and 45 μL of ACN:0.1% NaOH (50:50, v/v)^+0.20 nM d8-KMV was added and mixed on a shaker. 15 μL was transferred to a new 96-well plate and 15 μL of 10 mg/mL PFBHA solution was added and mixed on the shaker. The reaction was placed on ice for 30 minutes and quenched with 10 μL of ACN: Acetone (50:50, v/v) on a shaker. The resulting mixture was diluted with 100 μL of ACN:0.1% NaOH (50:50, v/v) on a shaker. 10 μL of sample were injected on the Shimadzu 20AD LC-MS/MS to quantify ^13C6-KMV.
Where a compound was tested multiple times, the average value of the tests is reported.

Broadly, the IC50 is the concentration at which inhibition is half-maximal.

Consider `O=C(N[C@@H]1C[C@@H](OC(F)F)C[C@H](n2c(-c3ccccc3F)nc3cnc(-c4ncn[nH]4)cc32)C1)c1cc(F)ccn1` (relative stereo) [compound 128], for which the IC50 in experiment [1] is less than 100 nM; in experiment [2] (engineered A549 cells, 24 hours, 13C6-KMV in media, average where tested multiple times, read-out: BCAT2 Cell Inhibition (IC50)), 100 to 500 nM. For `CN1CC(NC(=O)c2cc(Cl)ccc2O)C[C@H](n2c(-c3ccccc3F)nc3cnc(-c4nc[nH]n4)cc32)C1` (stereo in doubt) [Example 143, 5-chloro-N-(5-(2-(2-fluorophenyl)-6-(1H-1,2,4-triazol-3-yl)-1H-imidazo[4,5-c]pyridin-1-yl)-1-methylpiperidin-3-yl)-2-hydroxybenzamide], the IC50 in experiment [1] and in experiment [2] was less than 100 nM throughout. Consider `COc1ccc(Cl)cc1C(=O)N[C@H]1CCC[C@@H](n2c(-c3ccccc3F)nc3cnc(-c4nc[nH]n4)cc32)C1` [Example 1, 5-chloro-N-((1S,3R)-3-(2-(2-fluorophenyl)-6-(1H-1,2,4-triazol-3-yl)-1H-imidazo[4,5-c]pyridin-1-yl)cyclohexyl)-2-methoxybenzamide], for which the IC50 in experiment [1] and in experiment [2] was less than 100 nM each time. For `COc1cccc(F)c1C(=O)N[C@H]1CCC[C@@H](n2c(-c3ccccc3F)nc3cnc(-c4nc[nH]n4)cc32)C1` [Example 2, 2-fluoro-N-((1S,3R)-3-(2-(2-fluorophenyl)-6-(1H-1,2,4-triazol-3-yl)-1H-imidazo[4,5-c]pyridin-1-yl)cyclohexyl)-6-methoxybenzamide], the IC50 in experiment [1] is less than 100 nM; in experiment [2] (read-out: BCAT2 Cell Inhibition (IC50), engineered A549 cells, 24 hours, 13C6-KMV in media, average where tested multiple times), more than 1000 nM.

As to `O=C(N[C@H]1CCC[C@@H](n2c(-c3ccccc3F)nc3cnc(-c4nc[nH]n4)cc32)C1)c1ccccc1Cl` [Example 3, 2-chloro-N-((1S,3R)-3-(2-(2-fluorophenyl)-6-(1H-1,2,4-triazol-3-yl)-1H-imidazo[4,5-c]pyridin-1-yl)cyclohexyl)benzamide], the IC50 in experiment [1] is less than 100 nM; in experiment [2], 100 to 500 nM. `O=C(N[C@H]1CCC[C@@H](n2c(-c3ccccc3F)nc3cnc(-c4nc[nH]n4)cc32)C1)c1cc(Cl)ccc1OC(F)(F)F` [Example 4, 5-chloro-N-((1S,3R)-3-(2-(2-fluorophenyl)-6-(1H-1,2,4-triazol-3-yl)-1H-imidazo[4,5-c]pyridin-1-yl)cyclohexyl)-2-(trifluoromethoxy)benzamide]: the IC50 is less than 100 nM in experiment [1] and 500 to 1000 nM in experiment [2]. Turning to `COc1ccccc1C(=O)N[C@H]1CCC[C@@H](n2c(-c3ccccc3F)nc3cnc(-c4nc[nH]n4)cc32)C1` [Example 5, N-((1S,3R)-3-(2-(2-fluorophenyl)-6-(1H-1,2,4-triazol-3-yl)-1H-imidazo[4,5-c]pyridin-1-yl)cyclohexyl)-2-methoxybenzamide], the IC50 in experiment [1] and in experiment [2] was less than 100 nM throughout. Take `CCOc1ccc(Cl)cc1C(=O)N[C@H]1CCC[C@@H](n2c(-c3ccccc3F)nc3cnc(-c4nc[nH]n4)cc32)C1` [Example 6, 5-chloro-2-ethoxy-N-((1S,3R)-3-(2-(2-fluorophenyl)-6-(1H-1,2,4-triazol-3-yl)-1H-imidazo[4,5-c]pyridin-1-yl)cyclohexyl)benzamide]: the IC50 in experiment [1] and in experiment [2] was less than 100 nM each time.

For the molecule `O=C(N[C@H]1CCC[C@@H](n2c(-c3ccccc3F)nc3cnc(-c4nc[nH]n4)cc32)C1)c1cc(Cl)ccn1` [Example 7, 4-chloro-N-((1S,3R)-3-(2-(2-fluorophenyl)-6-(1H-1,2,4-triazol-3-yl)-1H-imidazo[4,5-c]pyridin-1-yl)cyclohexyl)picolinamide], the IC50 in experiment [1] and in experiment [2] was less than 100 nM throughout. `O=C(N[C@H]1CCC[C@@H](n2c(-c3ccccc3F)nc3cnc(-c4nc[nH]n4)cc32)C1)c1ncccc1Cl` [Example 10, 3-chloro-N-((1S,3R)-3-(2-(2-fluorophenyl)-6-(1H-1,2,4-triazol-3-yl)-1H-imidazo[4,5-c]pyridin-1-yl)cyclohexyl)picolinamide]: the IC50 in experiment [1] is less than 100 nM; in experiment [2], 500 to 1000 nM. The corresponding values for `O=C(N[C@H]1CCC[C@@H](n2c(-c3ccccc3F)nc3cnc(-c4nc[nH]n4)cc32)C1)c1ncccc1F` [Example 11, 3-fluoro-N-((1S,3R)-3-(2-(2-fluorophenyl)-6-(1H-1,2,4-triazol-3-yl)-1H-imidazo[4,5-c]pyridin-1-yl)cyclohexyl)picolinamide] are less than 100 nM and 500 to 1000 nM. The corresponding values for `O=C(N[C@H]1CCC[C@@H](n2c(-c3ccccc3F)nc3cnc(-c4nc[nH]n4)cc32)C1)c1ccc(Cl)cn1` [Example 13, 5-chloro-N-((1S,3R)-3-(2-(2-fluorophenyl)-6-(1H-1,2,4-triazol-3-yl)-1H-imidazo[4,5-c]pyridin-1-yl)cyclohexyl)picolinamide] are less than 100 nM and less than 100 nM. The corresponding values for `O=C(N[C@H]1CCC[C@@H](n2c(-c3ccccc3F)nc3cnc(-c4nc[nH]n4)cc32)C1)c1cc(F)ccn1` [Example 14, 4-fluoro-N-((1S,3R)-3-(2-(2-fluorophenyl)-6-(1H-1,2,4-triazol-3-yl)-1H-imidazo[4,5-c]pyridin-1-yl)cyclohexyl)picolinamide] are less than 100 nM and less than 100 nM. Regarding `O=C(N[C@H]1CCC[C@@H](n2c(-c3ncccc3F)nc3cnc(-c4nc[nH]n4)cc32)C1)c1cc(Cl)ccn1` [Example 15, 4-chloro-N-((1S,3R)-3-(2-(3-fluoropyridin-2-yl)-6-(1H-1,2,4-triazol-3-yl)-1H-imidazo[4,5-c]pyridin-1-yl)cyclohexyl)picolinamide], the IC50 in experiment [1] and in experiment [2] was less than 100 nM in each case. For `O=C(N[C@H]1CCC[C@@H](n2c(-c3ncccc3F)nc3cnc(-c4nc[nH]n4)cc32)C1)c1cc(F)ccn1` [Example 16, 4-fluoro-N-((1S,3R)-3-(2-(3-fluoropyridin-2-yl)-6-(1H-1,2,4-triazol-3-yl)-1H-imidazo[4,5-c]pyridin-1-yl)cyclohexyl)picolinamide], the IC50 in experiment [1] was less than 100 nM; in experiment [2], 100 to 500 nM. As for `O=C1c2cc(F)ccc2CN1[C@H]1CCC[C@@H](n2c(-c3ccccc3F)nc3cnc(-c4ncccc4F)cc32)[C@@H]1O` [Example 190, 6-fluoro-2-((1S,2S,3R)-3-(2-(2-fluorophenyl)-6-(3-fluoropyridin-2-yl)-1H-imidazo[4,5-c]pyridin-1-yl)-2-hydroxycyclohexyl)isoindolin-1-one], the IC50 in experiment [2] is less than 100 nM. Consider `O=C(N[C@H]1CCC[C@@H](n2c(-c3ncccc3OC(F)F)nc3cnc(-c4nc[nH]n4)cc32)C1)c1cc(Cl)ccc1OC(F)F` [compound 66], for which, in experiment [1], the IC50 is less than 100 nM.

Turning to `O=C(N[C@H]1CCC[C@@H](n2c(-c3ncccc3OC(F)F)nc3cnc(-c4ncn[nH]4)cc32)C1)c1cc(O)ccc1Cl` [compound 97], the IC50 in experiment [1] is less than 100 nM. The same measure, in the same setting: the same measure for `CN1C[C@@H](NC(=O)c2cc(F)ccn2)C[C@@H](n2c(-c3ccccc3OC(F)F)nc3cnc(-c4nc[nH]n4)cc32)C1` [compound 140]: 500 to 1000 nM. Same read-out and setting: the same measure for `CN1C[C@@H](NC(=O)c2cc(Cl)ccn2)C[C@@H](n2c(-c3ccccc3OC(F)F)nc3cnc(-c4nc[nH]n4)cc32)C1` [compound 142]: 100 to 500 nM.
